Article PMC12392461, “Beyond Estrogenicity: A Comparative Assessment of Bisphenol A and Its Alternatives in In Vitro Assays Questions Safety of Replacements” (Environmental Science & Technology, 2025)
Where two headings read alike, the source gives them in different places.

How the values were obtained:
[1] = biological target: T1, Aryl hydrocarbon receptor (Rattus norvegicus, UniProt P41738); conditions: for EC10, linear / logEC10 / EC10, linear transformed: Bioassay AhR, dosing range all; for EC10, linear: linear model fit; for logEC10: log-logistic model fit; for log(1/EC10) AhR: input of the ToxPi score, values up to 1.00; for SR-ScoreAhR: SR-Score, sigma k=1, x=5; for EC10, AhR: effect
T1 sequence (P41738 10-853): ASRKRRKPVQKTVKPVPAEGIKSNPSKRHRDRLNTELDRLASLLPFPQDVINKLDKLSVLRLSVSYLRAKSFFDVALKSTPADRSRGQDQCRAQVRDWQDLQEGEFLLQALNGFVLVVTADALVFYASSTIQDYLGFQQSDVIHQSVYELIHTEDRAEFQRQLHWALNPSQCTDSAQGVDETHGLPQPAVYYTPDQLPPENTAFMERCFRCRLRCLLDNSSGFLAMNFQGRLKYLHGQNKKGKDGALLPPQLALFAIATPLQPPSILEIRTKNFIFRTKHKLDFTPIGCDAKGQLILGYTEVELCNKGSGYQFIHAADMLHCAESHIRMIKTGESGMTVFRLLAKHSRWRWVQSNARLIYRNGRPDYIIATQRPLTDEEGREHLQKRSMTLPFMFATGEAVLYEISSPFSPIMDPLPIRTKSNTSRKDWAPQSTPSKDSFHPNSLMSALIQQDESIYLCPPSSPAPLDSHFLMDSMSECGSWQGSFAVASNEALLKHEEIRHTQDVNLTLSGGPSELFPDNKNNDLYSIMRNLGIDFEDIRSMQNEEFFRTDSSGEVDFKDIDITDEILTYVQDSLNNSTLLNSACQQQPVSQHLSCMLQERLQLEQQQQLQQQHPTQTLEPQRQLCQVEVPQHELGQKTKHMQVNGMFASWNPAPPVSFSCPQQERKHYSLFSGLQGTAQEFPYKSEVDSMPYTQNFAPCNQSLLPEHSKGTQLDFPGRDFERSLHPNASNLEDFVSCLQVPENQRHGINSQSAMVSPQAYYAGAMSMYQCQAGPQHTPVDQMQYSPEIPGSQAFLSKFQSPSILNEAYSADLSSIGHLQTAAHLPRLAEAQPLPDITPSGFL
Excerpt: All bioassay media components and the ERα-UAS-bla GripTite and PPARγ-UAS-bla cells were obtained from Thermo Fisher Scientific (Waltham, MA, USA). AREc32 reporter gene cells based on MCF7 were provided by C. Roland Wolf (Cancer Research UK); AhR CALUX cells (H4L7.5c2 derived from H4IIe) were provided by Michael Denison (UC Davis, USA); and SH-SY5Y cells were purchased from Sigma-Aldrich.
(§1) Cell culture conditions and bioassay protocols including response detection are provided in Text S2.1–2.4 and Table S3. − Cell viability was determined from cell confluency using an IncuCyte S3 Live-Cell Analysis System (Sartorius AG, Essen, Germany) before and after exposure, except for SH-SY5Y cells (live–dead staining with Nuclear Green LcS1 and propidium iodide, Abcam, UK). For metabolic activation experiments, cell viability was assessed using the ToxBLAzer DualScreen Kit (Thermo Fisher Scientific) to capture the remaining toxicity in ERα-UAS-bla GripTite after treatment with the aCYP catalyst (details in Text S2.4).
For ARE, the concentration that triggered an induction ratio of 1.5 (ECIR1.5) was used as the benchmark value, as detailed in Text S2.5. IC10 values also served as a threshold for data analysis in all assays; only concentrations below IC10 were considered when deriving EC10 or ECIR1.5. […]
S2: Cell culture and bioassays
S2.1: Cell Culturing Conditions
All suppliers and sources are given in detail in SI-Excel S3. The bioassay media for the different assays were prepared as follows: Assay medium for ER alpha-UAS-bla GripTite (ERα) and PPAR gamma-UAS-bla 293H (PPARγ) was prepared with 98% Opti-MEM, supplemented with 2% charcoal-stripped FBS, and 100 U/mL penicillin-streptomycin. MitoOxTox and AhR assay medium was comprised of 90% DMEM with GlutaMAX, supplemented with 10% FBS, and 100 U/mL penicillin-streptomycin. Neurotoxicity assay medium consisted of the neurobasal […]
(1 picture or pasted object on this page, not shown here) […]
medium, supplemented with 2% B-27 Supplement and 2 mM GlutaMAX Supplement. SH - SY5Y cells were differentiated with 10 µM all-trans retinoic acid prior to the assay.
(§2) S2.2: Cell Seeding and Incubation. For all bioassays, cell suspensions in the respective assay medium were dispensed into each well of 384-well plates using a MultiFlo Dispenser (Biotek, (now Agilent), Winooski, VT, U.S.). After seeding, the plates were incubated at 37° C and 5% CO₂ for […]. The final cell densities and plate types were as follows: Black poly-D-lysine coated 384-well plates (Product No. 354663, Corning Inc., NYC, U.S.) were used for PPARγ:
(§3) 6500 cells/well, ERα: 5000 cells/well. White 384-well plates with a clear bottom (Product No.
781098, Greiner, Kremsmünster, Austria) were utilized for the MitoOxTox assay: 2650

MCF7 (ARE/MMP) = conditions: for IC10, MCF7, ARE: MCF7, ARE readout; for IC10, MCF7, MMP: MCF7, MMP readout
Procedure: as §1
For ARE, the concentration that triggered an induction ratio of 1.5 (ECIR1.5) was used as the benchmark value, as detailed in Text S2.5. IC10 values also served as a threshold for data analysis in all assays; only concentrations below IC10 were considered when deriving EC10 or ECIR1.5.
We measured the cytotoxicity of BPA and its alternatives in HEK293H (PPARγ), HEK293T (ERα), H4IIe (AhR CALUX), MCF7 (ARE/MMP), and differentiated SH-SY5Y cells (Table S6). […]
as §2, with “coated 384-well plates (Product No. 354663, Corning Inc., NYC, U.S.) were used for PPARγ:” left out
as §3
NYC, U.S.) for AhR: 3250 cells/well. Black Collagen I coated plates were used (Product No.
S2.3: Chemical Dosing and Assay Analysis Procedures. The dosing procedure and high-throughput assay workflow have been described in detail before. 9 The dosing concentrations […]
Stock solutions were then either added directly to the respective cell culture medium or evaporated under nitrogen, followed by replenishment with fresh medium. The final solvent content in each well was kept below 1% for methanol, 0% for acetonitrile.
Dosing plates were prepared as 11 -step serial dilutions using a Hamilton Microlab Star robotic system (Hamilton, Bonaduz, Switzerland), and chemicals were dosed in duplicates by transferring 10 μL twice from the dosing plates to the cell plates . After quantifying cell confluency as described in S2. 4., the exposed cells were incubated at 37° C and 5% CO₂ for an additional 24 h. All chemicals were tested in all assays with at least three independent […]
S2.4: Cell Viability Measurement s and bioanalytical protocols . The confluency as a measure of cell viability was determined with an IncuCyte S3 Live -Cell Analysis System (Sartorius AG, Essen, Germany). With this method the confluency of cells in a microscopy image are normalized to control wells without cells and compared before and after 24 hours of exposure.
This method has been described previously 13. […]

[2] = Bioassay ARE, cytotoxicity, dosing range all, linear model fit
[3] = Bioassay ARE, cytotoxicity, dosing range all, log-logistic model fit
[4] = MMP bioassay cytotoxicity, dosing range all, linear model
[5] = MMP bioassay cytotoxicity, dosing range all, log-logistic model
[6] = Bioassay ARE, cytotoxicity, dosing range all
[7] = MMP bioassay cytotoxicity, dosing range all
[8] = against baseline cytotoxicity, ARE readout
[9] = against baseline cytotoxicity, MMP readout

Row | SMILES | EC10, linear [1] | logEC10 [1] | IC10, linear (MCF7 (ARE/MMP); [2]) | logIC10 (MCF7 (ARE/MMP); [3]) | IC10, linear (MCF7 (ARE/MMP); [4]) | logIC10 (MCF7 (ARE/MMP); [5]) | log(1/EC10) AhR [1] | IC10, linear transformed (MCF7 (ARE/MMP); [6]) | IC10, linear transformed (MCF7 (ARE/MMP); [7]) | IC10, MCF7, ARE (MCF7 (ARE/MMP); cytotoxicity) | IC10, MCF7, MMP (MCF7 (ARE/MMP); cytotoxicity) | further results
1 | CC1(C)C(O)C(C)(C)C1O (racemic) [r-TMCD, 2,2,4,4-Tetramethyl-1,3-cyclobutanediol (racemate)] | no effect | no effect | no cytotoxicity | no cytotoxicity | no cytotoxicity | no cytotoxicity |  |  |  |  |  | 
2 | O=S(=O)(c1ccc(O)cc1)c1ccccc1O [2,4-BPS, 2,4'-Dihydroxydiphenyl sulfone] | no effect | no effect |  |  |  |  | 0.74 |  |  |  |  | Toxic ratio (TR) TRARE (MCF7 (ARE/MMP); human, 24 h): 0.77; Toxic ratio (TR) TRMMP (MCF7 (ARE/MMP); human, 24 h): 0.77; logIC10 (MCF7 (ARE/MMP); human, 24 h): -3.05
3 | CC(C)(c1ccc(OCC2CO2)cc1)c1ccc(OCC2CO2)cc1 (stereo not shown) [BADGE, Bisphenol A diglycidyl ether] | no effect | no effect | 3.62E-05 | -4.41 | 8.59E-05 | -4.10 |  | 3.85E-05 | 7.87E-05 | 38.5 µM | 78.7 µM | Toxic ratio (TR) TRARE (MCF7 (ARE/MMP); [8]): 0.61; Toxic ratio (TR) TRMMP (MCF7 (ARE/MMP); [9]): 0.30
4 | CC(C)CC(C)(c1ccc(O)cc1)c1ccc(O)cc1 [BP-MIBK, 4,4'-(1,3-Dimethylbutylidene)diphenol] | no effect | no effect |  |  |  |  | 0.86 |  |  |  |  | IC10, linear (MCF7 (ARE/MMP)): no cytotoxicity
5 | CC(C)(c1ccc(O)cc1)c1ccc(O)cc1 [BPA, 4,4'-(Propane-2,2-diyl)diphenol, reference compound] | 2.64E-04 | no effect |  |  |  |  | 0.79 |  |  |  |  | EC10, AhR (M) [1]: 2.64 × 10^–4 M; EC10, linear transformed [1]: 3.80E-04; SR-ScoreAhR [1]: 0.00737; Specificity ratio (SRbaseline) SRAhR ([1]; against baseline cytotoxicity): 0.10; EC10, AhR [1]: 264 µM; Specificity ratio (SRcytotoxicity) SRAhR ([1]; rat, 24 h): 0.00; SR (AhR) ([1]; specificity ratio): ≤ 10; Toxic ratio (TR) TRARE (MCF7 (ARE/MMP); human, 24 h): 0.37; Toxic ratio (TR) TRMMP (MCF7 (ARE/MMP); human, 24 h): 0.31
6 | Oc1ccc(C(c2ccc(O)cc2)(C(F)(F)F)C(F)(F)F)cc1 [BPAF, 4,4'-(1,1,1,3,3,3-Hexafluoropropane-2,2-diyl)diphenol] | no effect | no effect | 1.82E-05 | -4.73 | 2.87E-05 | -4.57 | 0.92 | 1.84E-05 | 2.72E-05 | 18.4 µM | 27.2 µM | 
7 | CC(c1ccccc1)(c1ccc(O)cc1)c1ccc(O)cc1 [BPAP, 4,4'-(1-Phenylethylidene)bisphenol] | no effect | no effect | 2.44E-05 | -4.50 | 2.54E-05 | -4.46 |  | 3.14E-05 | 3.48E-05 | 31.4 µM | 34.8 µM | 
8 | CCC(C)(c1ccc(O)cc1)c1ccc(O)cc1 [BPB, 4,4'-(Butane-2,2-diyl)diphenol] | no effect | no effect | 3.87E-05 | -4.43 | 3.05E-05 | -4.46 | 0.83 | 3.73E-05 | 3.51E-05 | 37.3 µM | 35.1 µM | Toxic ratio (TR) TRARE (MCF7 (ARE/MMP); [8]): 0.58; Toxic ratio (TR) TRMMP (MCF7 (ARE/MMP); [9]): 0.62
9 | CC(c1ccc(O)cc1)c1ccc(O)cc1 [BPE, 4,4′-Ethylidenbisphenol] | 6.19E-05 | -4.12 | 1.10E-04 | -4.10 | 8.57E-05 | -4.10 |  | 7.96E-05 | 7.86E-05 | 79.6 µM | 78.6 µM | EC10, AhR (M) [1]: 6.19 × 10^–5 M; EC10, linear transformed [1]: 7.73E-05; SR-ScoreAhR [1]: 0.0256; EC10, AhR [1]: 61.9 µM
10 | Oc1ccc(C2(c3ccc(O)cc3)CCCCC2)cc1 [BPZ, 1,1'-Bis(4-hydroxyphenyl)cyclohexane] |  |  | 3.45E-05 | -4.14 | 3.30E-05 | -4.48 |  | 7.27E-05 | 3.28E-05 | 72.7 µM | 32.8 µM | 
11 | CC1(C)[C@H](O)C(C)(C)[C@H]1O [t-TMCD, trans-2,2,4,4-Tetramethyl-1,3-cyclobutanediol] |  |  |  |  |  |  | 0.30 |  |  |  |  | 
